Drawing on patent US8420640B2, “Methods of treating amyloid disease using analogs of 1-(4-nitrophenyl) piperazine” (Treventis Corporation, priority 2008, dated 2013), this text covers IC50 and Ratio for 58 compounds.

The assay addresses T1, Aβ40 (Homo sapiens, UniProt P05067).
T1 construct: Compounds Showing Activity Observed in a ThT Functional Aβ 1-40 Aggregation Assay
Nature of the assay: ThT functional Aβ 1-40 aggregation assay. The class given is biochemical. As to conditions: for IC50: 20 μM Aβ, 20 mM Tris pH 7.4, 150 mM NaCl, 1% DMSO, 37° C.; for Ratio: potency with respect to the compound of Example 7, 1=potency of that compound. As for the experimental part: Aβ40 (1.0 mg) was pre-treated in a 1.5 mL microfuge tube with HFIP (1 mL) and sonicated for 20 min to disassemble any pre-formed Aβ aggregates. The HFIP was removed with a stream of argon and the Aβ dissolved in Tris base (5.8 mL, 20 mM, pH ˜10). The pH was adjusted to 7.4 with concentrated HCl (˜10 μL) and the solution filtered using a syringe filter (0.2 μm) before being used.
The kinetic ThT assay for Aβ aggregation is similar to that of Chalifour et al (Chalifour et al, 2003, J. Biol. Chem. 278:34874-81). Briefly, pre-treated Aβ40 (40 μM in 20 mM Tris, pH 7.4), was diluted with an equal volume of 8 μM ThT in Tris (20 mM, pH 7.4, 300 mM NaCl). Aliquots of Aβ/ThT (200 μL) were added to wells of a black polystyrene 96-well plate, followed by 2 μL of a compound in DMSO (variable concentration), or DMSO alone (controls). Incubations were performed in triplicate and were taken to contain 20 μM Aβ, various concentration of compound in 20 mM Tris, pH 7.4, 150 mM NaCl, 1% DMSO. Plates were covered with clear polystyrene lids and incubated at 37° C. in a Tecan Genios microplate reader. Fluorescence readings (λex=450 nm, λem=480 nm) were taken every 15 min., after first shaking at high intensity for 15 s and allowing to settle for 10 s before each reading. Active compounds attenuated the increase in fluorescence over time that occurred in controls. By repeating this procedure over several concentrations, a mean inhibitory concentration (IC50) was measured, as given in the table below. The column “A-syn” represents a similar procedure measuring inhibition of alpha-synuclein aggregation. The column “ratio” is a reproducible assessment of potency with respect to the compound of Example 7, in which 1=potency of that compound: […]

Where only a bound is given, the exact number is not on record here.

T1 sequence (P05067 672-711 limits assumed): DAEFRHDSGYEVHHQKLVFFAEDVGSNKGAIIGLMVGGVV

For orientation: IC50 means the concentration that gives 50% inhibition. On to `O=C(NCc1ccccc1)C1CCN(c2ccc([N+](=O)[O-])c(NCc3ccccc3)c2)CC1`, for which the IC50 amounted to 975 µM and the Ratio is 0.03.
In turn, `O=[N+]([O-])c1ccc(N2CCCCC2)cc1Nc1ccccc1` came in with an IC50 above 100 µM.
For `CCN(CC)C(=O)c1ccc(N2CCN(C(=O)c3ccccc3)CC2)cc1NCc1ccccc1`, the IC50 came to 361 µM and the Ratio was found to be 0.05.
As to `CC(=O)Nc1cc([N+](=O)[O-])ccc1N1CCN(C(=O)c2ccccc2)CC1`, the IC50 was 105 µM and the Ratio is reported as 0.04.
As to `O=C(NCc1ccccc1)c1ccc(-c2ccc([N+](=O)[O-])c(NCc3ccccc3)c2)cc1`, the IC50 was determined as 42 µM and the Ratio came out at 0.11.
As for `O=C(O)C1CCN(c2ccc([N+](=O)[O-])c(NCc3ccccc3)c2)CC1`, half-maximal inhibition (IC50) was put at 23 µM and the Ratio turned out to be 0.89.
For `CS(=O)(=O)N1CCN(c2ccc([N+](=O)[O-])c(Nc3ccccc3)c2)CC1`, the IC50 was above 50 µM.
On to `O=C(c1ccccc1)N1CCN(c2ccc([N+](=O)[O-])cc2Nc2ccccc2)CC1`, for which half-maximal inhibition (IC50) was put at 92 µM and the Ratio is listed as 0.34.
As to `O=C(Nc1cc([N+](=O)[O-])ccc1N1CCN(C(=O)c2ccccc2)CC1)c1ccccc1`, the concentration for half-maximal inhibition (IC50) was determined as 1040 µM and the Ratio came out at 0.01.
For the compound `CN(C)C(=O)c1ccc(N2CCN(C(=O)c3ccccc3)CC2)cc1NCc1ccccc1`, the IC50 turned out to be 84 µM and the Ratio is 0.11.
`CNc1ccc(N2CCN(C(=O)c3ccccc3)CC2)cc1N(C)c1ccccc1`: the IC50 is 7.8 µM and the Ratio came to 1.3.
Turning to `O=C(c1ccccc1)N1CCN(c2ccc([N+](=O)[O-])c(Oc3ccccc3)c2)CC1`, the IC50 is above 50 µM.
As for `O=[N+]([O-])c1ccc(Br)cc1NCc1ccccc1`, the IC50 was 20 to 50 µM.
As to `CC(=O)Nc1cc(N2CCN(C(=O)c3ccccc3)CC2)ccc1[N+](=O)[O-]`, the IC50 worked out at 44 µM and the Ratio came out at 0.19.
For the compound `COc1ccc(C(=O)N2CCN(c3ccc([N+](=O)[O-])c(NCc4ccco4)c3)CC2)cc1OC`, the 50% inhibitory concentration (IC50) is above 20 µM.
Take `O=C(O)C1CCCN(c2ccc([N+](=O)[O-])c(NCc3ccccc3)c2)C1` (stereo not drawn): the IC50 was found to be 21.7 µM and the Ratio amounted to 0.88.
Take `CN(C)c1ccc([N+](=O)[O-])c(Nc2ccccc2)c1`: the IC50 turned out to be 39 µM and the Ratio stood at 0.15.
Consider `CN(C)c1ccc(N2CCN(C(=O)c3ccccc3)CC2)cc1N(C)c1ccccc1`, for which the IC50 came to 148 µM and the Ratio came out at 0.25.
Take `O=C(O)c1ccc(N2CCN(C(=O)c3ccccc3)CC2)cc1NCc1ccccc1`: the midpoint of inhibition, the IC50, lay at 189 µM and the Ratio is on record as 0.05.
`COC(=O)c1ccc(N2CCN(C(=O)c3ccccc3)CC2)cc1NCc1ccccc1`: the midpoint of inhibition, the IC50, lay at 174 µM and the Ratio came to 0.14.
Take `O=C(c1ccccc1)N1CCN(c2cccc([N+](=O)[O-])c2)CC1` [drawing 151]: the IC50 turned out to be 360 µM and the Ratio is reported as 0.06.
The compound `O=[N+]([O-])c1ccc(N2CCN(S(=O)(=O)c3ccccc3)CC2)cc1Nc1ccccc1` had an IC50 above 50 µM.
Consider `O=C(Nc1ccccc1)c1cccc(-c2ccc([N+](=O)[O-])c(NCc3ccccc3)c2)c1`, for which the IC50 was determined as 5730 µM and the Ratio is 0.
As for `O=C(NCc1ccccc1)c1cccc(-c2ccc([N+](=O)[O-])c(NCc3ccccc3)c2)c1`, the IC50 came out at 14900 µM and the Ratio was found to be 0.
With `O=C(Nc1cc(N2CCN(C(=O)c3ccccc3)CC2)ccc1[N+](=O)[O-])c1ccccc1`, the IC50 turned out to be 178 µM and the Ratio came out at 0.05.
With `NC(=O)c1ccc(N2CCN(C(=O)c3ccccc3)CC2)cc1NCc1ccccc1`, the IC50 came out at 265 µM and the Ratio stood at 0.03.
As for `CC(=O)N1CCN(c2ccc([N+](=O)[O-])c(NCc3ccccc3)c2)CC1`, it took 25.8 µM to reach half-maximal inhibition (IC50) and the Ratio stood at 0.58.
Taken in the same sequence, the figures for `O=C(Nc1ccccc1)C1CCN(c2ccc([N+](=O)[O-])c(NCc3ccccc3)c2)CC1` were 544 µM and 0.05.
With `CN(c1ccccc1)c1cc(N2CCN(C(=O)c3ccccc3)CC2)ccc1N`, the IC50 was determined as 15.5 µM and the Ratio worked out at 0.65.
`CN1CCN(c2ccc([N+](=O)[O-])c(Nc3ccccc3)c2)CC1`: half-maximal inhibition (IC50) required 23.2 µM and the Ratio was determined as 0.42.
For the compound `O=C(O)c1ccc(-c2ccc([N+](=O)[O-])c(NCc3ccccc3)c2)cc1`, inhibition was half-maximal at 184 µM (IC50) and the Ratio worked out at 0.02.
The like results for `COc1ccc(N2CCN(C(=O)c3ccccc3)CC2)cc1Nc1ccccc1` were, in that order, 238 µM and 0.04.
Turning to `O=C(Nc1ccccc1)c1ccccc1-c1ccc([N+](=O)[O-])c(NCc2ccccc2)c1`, 152 µM corresponded to half-maximal inhibition (IC50) and the Ratio was 0.03.
Turning to `O=C(c1ccccc1)N1CCN(c2ccc([N+](=O)[O-])cc2NCc2ccccc2)CC1`, the IC50 stood at 18 µM and the Ratio worked out at 0.22.
Consider `O=[N+]([O-])c1ccc(N2CCOCC2)cc1Nc1ccccc1`, for which the IC50 was 23 µM and the Ratio worked out at 0.40.
Taken in the same sequence, the figures for `Nc1cccc(N2CCN(C(=O)c3ccccc3)CC2)c1` were 428 µM and 0.05.
For the compound `O=C(Nc1ccccc1)c1ccc(-c2ccc([N+](=O)[O-])c(NCc3ccccc3)c2)cc1`, the half-inhibitory concentration (IC50) turned out to be 217 µM and the Ratio was determined as 0.07.
As to `O=[N+]([O-])c1ccc(N2CCNCC2)cc1Nc1ccccc1`, the IC50 was determined as 8.82 µM and the Ratio amounted to 0.54.
As to `CC(=O)Nc1ccc(N2CCN(C(=O)c3ccccc3)CC2)cc1Nc1ccccc1`, the Ratio is reported as 0.21.
Regarding `CNc1ccc(N2CCN(C(=O)c3ccccc3)CC2)cc1Nc1ccccc1`, half-maximal inhibition (IC50) required 2.29 µM and the Ratio is 4.4.
Taken in the same sequence, the figures for `Nc1ccc(N2CCN(C(=O)c3ccccc3)CC2)cc1N(Cc1ccccc1)c1ccccc1` were 107 µM and 0.35.
`CC(=O)N1CCN(c2ccc([N+](=O)[O-])c(N3CCc4ccccc4C3)c2)CC1` showed an IC50 of 4.03 µM.
For `O=C(c1ccccc1)N1CCN(c2ccc(NCCN3CCOCC3)c(Nc3ccccc3)c2)CC1`, the IC50 worked out at 54.4 µM and the Ratio is reported as 0.17.
Take `O=[N+]([O-])c1ccccc1NCc1ccccc1`: the IC50 amounted to 63 µM and the Ratio worked out at 0.38.
Regarding `O=C(c1nnc[nH]1)N1CCN(c2ccc([N+](=O)[O-])c(NCc3ccc(Cl)cc3)c2)CC1`, half-maximal inhibition (IC50) was put at 1.4 µM.
Turning to `Nc1ccc(N2CCN(C(=O)c3ccccc3)CC2)cc1Nc1ccccc1`, half-maximal inhibition (IC50) required 1.9 µM and the Ratio came to 9.9.
Turning to `O=C(c1ccccc1)N1CCN(c2cccc([N+](=O)[O-])c2)CC1` [drawing 132], the IC50 amounted to 196 µM and the Ratio is listed as 0.04.
For `O=C(NCc1ccccc1)c1ccccc1-c1ccc([N+](=O)[O-])c(NCc2ccccc2)c1`, half-maximal inhibition (IC50) was put at 631 µM and the Ratio is 0.02.
As for `CCNC(=O)c1ccc(N2CCN(C(=O)c3ccccc3)CC2)cc1NCc1ccccc1`, the IC50 turned out to be 66.2 µM and the Ratio is recorded as 0.13.
The compound `O=C(c1ccccc1F)N1CCN(c2ccc([N+](=O)[O-])c(NCc3ccco3)c2)CC1` displayed an IC50 of 2.1 µM.
For the compound `CN(C)C(=O)N1CCN(c2ccc([N+](=O)[O-])c(Nc3ccccc3)c2)CC1`, the IC50 came out at 8.4 µM and the Ratio is 0.72.
For the compound `O=C(c1ccccc1)N1CCN(c2cccc(Nc3ccccc3)c2)CC1`, the IC50 is 539 µM and the Ratio was determined as 0.05.
Take `CCOC(=O)C1CCN(c2ccc([N+](=O)[O-])cc2C(=O)c2ccc(Cl)cc2)CC1`: the IC50 was above 20 µM.
Still for that read-out and setting: then `CCc1ccc(C(=O)N2CCN(c3ccc([N+](=O)[O-])c(N4CCOCC4)c3)CC2)cc1`, with 2.7 µM; and `O=C(c1cccs1)N1CCN(c2ccc([N+](=O)[O-])c(-n3nc(-c4ccccc4)c4ccccc4c3=O)c2)CC1`, with above 20 µM; and `O=[N+]([O-])c1ccc(N2CCN(Cc3ccccc3)CC2)cc1Nc1ccccc1`, with above 50 µM.
On to `O=C(O)c1ccccc1-c1ccc([N+](=O)[O-])c(NCc2ccccc2)c1`, for which the IC50 amounted to 41.9 µM and the Ratio amounted to 0.5.
As to `O=C(c1ccccc1)N1CCN(c2ccc(NCCO)c(Nc3ccccc3)c2)CC1`, inhibition was half-maximal at 90 µM (IC50) and the Ratio was found to be 0.1.
